Measured values: US20090093460A1, “Compositions” (AstraZeneca AB, priority 2003, published 2009)

Key:
5-HT2A receptors = molecular target: T1, 5-HT2A receptors (Homo sapiens, UniProt P28223); assay: PET scans of primate subjects, 5-HT2A occupancy; type: in vivo; conditions: preliminary PET scans
T1 construct: from tissue; host or cells: brain of living primate subjects (PET)
Excerpt: (§1) The compound of Formula I is a dibenzothiazepine that has shown antidopaminergic activity.

mice [1] = assay: Mouse forced swim test; type: in vivo; conditions: 10.0 mg/kg sc, 15 minutes prior
Description: Methods: Mice were placed in cylinders of water (25.0° C.±1.5° C.) for 6 minutes. The amount of immobility was quantified during the last 4 minutes of each session. The experimental observer was blind to the treatment conditions. […] Imipramine 45.0 mg/kg and citalopram 15.0 mg/kg were measured as the salt and administered ip 60 minutes prior to the behavioural session.

Adrenergic α2A = molecular target: T2, Adrenergic α2A (Homo sapiens, UniProt P08913); assay: Radioligand binding Adrenergic α2A
T2 sequence (P08913 1-465): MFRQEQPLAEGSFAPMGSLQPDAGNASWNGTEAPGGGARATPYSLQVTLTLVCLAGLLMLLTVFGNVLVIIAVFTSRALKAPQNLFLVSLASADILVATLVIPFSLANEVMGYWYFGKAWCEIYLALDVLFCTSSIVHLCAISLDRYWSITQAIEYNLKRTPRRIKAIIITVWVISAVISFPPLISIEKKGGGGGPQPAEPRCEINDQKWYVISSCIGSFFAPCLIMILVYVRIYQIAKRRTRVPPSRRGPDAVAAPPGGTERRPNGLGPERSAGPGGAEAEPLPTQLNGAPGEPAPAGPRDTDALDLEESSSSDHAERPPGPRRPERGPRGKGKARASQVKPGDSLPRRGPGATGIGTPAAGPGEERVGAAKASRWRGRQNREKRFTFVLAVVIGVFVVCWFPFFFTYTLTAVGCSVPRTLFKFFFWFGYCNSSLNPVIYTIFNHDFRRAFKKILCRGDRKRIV

D1 receptors = molecular target: T3, D1 receptors (Homo sapiens, UniProt P21728); assay: PET scans of primate subjects, D1 occupancy; type: in vivo; conditions: preliminary PET scans
T3 construct: from tissue; host or cells: brain of living primate subjects (PET)
T3 sequence (P21728 whole entry): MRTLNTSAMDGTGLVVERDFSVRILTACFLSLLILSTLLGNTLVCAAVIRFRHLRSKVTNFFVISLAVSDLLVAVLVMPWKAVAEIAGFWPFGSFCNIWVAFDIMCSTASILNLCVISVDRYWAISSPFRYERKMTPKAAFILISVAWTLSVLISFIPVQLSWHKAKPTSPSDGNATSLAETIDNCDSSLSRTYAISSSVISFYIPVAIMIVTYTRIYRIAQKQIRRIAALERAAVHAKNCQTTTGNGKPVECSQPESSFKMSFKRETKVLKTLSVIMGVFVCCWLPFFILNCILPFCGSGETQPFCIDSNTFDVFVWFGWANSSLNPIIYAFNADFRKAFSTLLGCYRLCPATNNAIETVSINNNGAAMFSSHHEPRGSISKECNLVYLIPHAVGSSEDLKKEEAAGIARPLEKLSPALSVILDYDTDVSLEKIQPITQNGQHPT
Excerpt: as §1

5HT Transporter = molecular target: T4, 5HT Transporter (Homo sapiens, UniProt P31645); assay: PET scans of primate subjects, 5HT Transporter occupancy; type: in vivo; conditions: preliminary PET scans
T4 construct: from tissue; host or cells: brain of living primate subjects (PET)
T4 sequence (P31645 whole entry, species assumed): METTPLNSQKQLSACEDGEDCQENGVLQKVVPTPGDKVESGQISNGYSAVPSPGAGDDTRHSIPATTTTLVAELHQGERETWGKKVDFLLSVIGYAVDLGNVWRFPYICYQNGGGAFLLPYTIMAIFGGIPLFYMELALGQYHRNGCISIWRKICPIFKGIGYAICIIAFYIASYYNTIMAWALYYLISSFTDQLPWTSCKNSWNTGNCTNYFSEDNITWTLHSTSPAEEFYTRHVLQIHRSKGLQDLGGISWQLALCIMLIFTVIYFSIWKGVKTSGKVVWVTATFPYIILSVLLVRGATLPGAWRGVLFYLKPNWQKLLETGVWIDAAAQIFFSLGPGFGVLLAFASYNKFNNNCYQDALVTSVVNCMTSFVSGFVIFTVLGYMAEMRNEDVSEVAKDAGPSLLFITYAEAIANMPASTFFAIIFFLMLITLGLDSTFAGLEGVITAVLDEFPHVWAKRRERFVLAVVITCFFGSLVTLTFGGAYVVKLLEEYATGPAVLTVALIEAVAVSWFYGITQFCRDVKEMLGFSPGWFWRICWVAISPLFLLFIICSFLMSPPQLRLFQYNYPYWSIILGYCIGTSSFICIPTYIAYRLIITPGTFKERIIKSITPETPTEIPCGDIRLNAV
Excerpt: as §1

5-HT1A receptors = molecular target: T5, 5-HT1A receptors (Homo sapiens, UniProt P08908); assay: PET scans of primate subjects, 5-HT1A occupancy; type: in vivo; set-up: from tissue; host or cells: brain of living primate subjects (PET); conditions: preliminary PET scans
T5 sequence (P08908 1-422): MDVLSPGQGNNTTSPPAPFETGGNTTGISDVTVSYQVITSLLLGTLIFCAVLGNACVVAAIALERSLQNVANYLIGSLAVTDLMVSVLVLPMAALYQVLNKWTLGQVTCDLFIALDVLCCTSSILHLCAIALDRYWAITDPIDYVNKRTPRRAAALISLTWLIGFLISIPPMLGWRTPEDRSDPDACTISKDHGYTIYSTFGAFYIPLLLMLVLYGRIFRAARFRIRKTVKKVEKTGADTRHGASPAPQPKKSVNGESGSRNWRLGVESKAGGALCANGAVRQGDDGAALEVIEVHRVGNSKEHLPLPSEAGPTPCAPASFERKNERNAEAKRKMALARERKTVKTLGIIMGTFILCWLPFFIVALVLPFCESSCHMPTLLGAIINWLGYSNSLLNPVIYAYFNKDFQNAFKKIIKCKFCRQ
Excerpt: as §1

[2] = Plasma levels in satellite exposure animals (Geller-Seifter); type: in vivo; conditions: Long Evans, rat, subcutaneous, 0.25 hours after administration
Description: Anxiolytic activity of 11-piperazin-1-yldibenzo[b,f][1,4]thiazepine was tested in rats according to the Geller-Seifter conflict test. Efficacy results are presented in Table 1 and plasma levels in satellite exposure animals at 0.25 hours after administration are provided in Table 2.
Several doses were tested on a given day in different subjects. Each dose, then, was tested in a different sub-set of rats. The dependent variables recorded were the rate of responding in unpunished and punished components (total responses/total time under the component), the number of shocks delivered. A selective anxiolytic effect is defined as an increase in responding in the […] components with relatively less or no effect on responding in […] components. t-Tests were used to compare mean of the control's rate of responding on vehicle day of the rats used for a specific dose to the same rats means following delivery of each dose of compound (for only the rats used within each dose). Brains, CSF and plasma were collected in a satellite group of rats that match the Geller-Seifter rats to evaluate exposure levels.
Exposure sampling: In weight and feeding status-matched subjects, terminal plasma, whole brain and CSF samples were collected. Four rats were used for each of the 4 doses of drug, with samples obtained 15 minutes after dosing.

[3] = molecular target: Adrenergic α1* Non-Selective; assay: Radioligand binding 203500 Adrenergic α1* Non-Selective; set-up: species or system rat
Excerpt: (§2) Receptor binding methods, α-adrenergic nonselective, are provided below.

mice [4] = assay: Standard apomorphine climbing mouse assay; type: in vivo; conditions: p.o.
Excerpt: The methods and procedures used can be found in Warawa et al., J. Med. Chem., 2001, 44 (3), 372-389, and are incorporated herein by reference.

[5] = molecular target: Adrenergic α2* Non-Selective; assay: Radioligand binding 203900 Adrenergic α2* Non-Selective; set-up: species or system rat
Excerpt: as §2

mice [6] = assay: Tail suspension test; type: in vivo, mouse
Description: Antidepressant activity of 11-piperazin-1-yldibenzo[b,f][1,4]thiazepine was assessed in mice according to the tail suspension test. As shown in the results below, 11-piperazin-1-yldibenzo[b,f][1,4]thiazepine has antidepressant activity in mice.
In a first experiment, mice (n=10/group) were treated with vehicle, 2.0, 5.0, or 10.0 mg/kg of 11-piperazin-1-yldibenzo[b,f][1,4]thiazepine s.c. 15 minutes prior to the test session. Mice were suspended from their tails for 7 minutes. During the last 5 minutes of the test, the duration of immobility was recorded. In a second experiment, mice (n=10/group) were treated with vehicle, 30 mg/kg 11-piperazin-1-yldibenzo[b,f][1,4]thiazepine, or 30 mg/kg fluoxetine p.o. 60 minutes prior to the test session. Mice were suspended from their tails for 7 minutes. During the last 5 minutes of the test, the duration of immobility was recorded.

T1 sequence (P28223 whole entry): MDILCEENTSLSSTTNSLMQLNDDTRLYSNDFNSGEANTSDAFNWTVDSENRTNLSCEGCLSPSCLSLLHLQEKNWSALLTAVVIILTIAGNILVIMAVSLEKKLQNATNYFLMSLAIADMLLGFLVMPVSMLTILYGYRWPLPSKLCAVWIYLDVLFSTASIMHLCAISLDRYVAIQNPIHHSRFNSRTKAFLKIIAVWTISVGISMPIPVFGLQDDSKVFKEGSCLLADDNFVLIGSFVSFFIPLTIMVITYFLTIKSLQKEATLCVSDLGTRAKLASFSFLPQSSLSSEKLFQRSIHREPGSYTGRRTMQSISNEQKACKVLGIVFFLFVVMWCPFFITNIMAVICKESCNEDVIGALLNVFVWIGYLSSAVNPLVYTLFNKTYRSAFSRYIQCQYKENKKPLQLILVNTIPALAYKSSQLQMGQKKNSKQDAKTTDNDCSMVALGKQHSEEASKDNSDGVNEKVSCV

c1ccc2c(c1)N=C(N1CCNCC1)c1ccccc1S2 [11-piperazin-1-yldibenzo[b,f][1,4]thiazepine]
receptor occupancy by PET (5-HT2A receptors): occupies
antidepressant effect (immobility) (mice [1]): antidepressant effects in this assay comparable to imipramine
IC50 (Adrenergic α2A): 2820 ± 275 nM
Ki (Adrenergic α2A): 1060 ± 103 nM
n (Adrenergic α2A): 0.969 ± 0.012
inhibition at 3 µM (Adrenergic α2A; 3 μM): 51%
receptor occupancy by PET (D1 receptors): occupies
transporter occupancy by PET (5HT Transporter): occupies
receptor occupancy by PET (5-HT1A receptors): occupies
concentration at 0.25 h ([2]; 2 mg/kg s.c.): 4.8 µM
concentration at 0.25 h ([2]; 5 mg/kg s.c.): 12.1 µM
concentration at 0.25 h ([2]; 10 mg/kg s.c.): 19.4 µM
IC50 [3]: 69.3 nM
Ki [3]: 37.2 nM
% INH. ([3]; 0.1 μM): 61%
in vivo antipsychotic activity (mice [4]): not shown to be efficacious
IC50 [5]: 1410 nM
Ki [5]: 1290 nM
% INH. ([5]; 10 μM): 73%
reduction of immobility, fraction of that of the vehicle control group (mice [6]; 10.0 mg/kg s.c.): more than ½
duration of immobility compared with controls (mice [6]; 10.0 mg/kg s.c., p<0.01): significantly reduced immobility
reduction of immobility, fraction of that of the vehicle control group (mice [6]; 30 mg/kg p.o., 60 minutes prior): more than ½
duration of immobility compared to the vehicle control group (mice [6]; 30 mg/kg p.o., 60 minutes prior, p<0.01): significantly reduced immobility
duration of immobility (mice [6]; all doses tested: 2.0, 5.0, 10.0 mg/kg s.c., 15 minutes prior): reduced immobility
